How the values were obtained:
[1] = test system: ApoE2/E2 mice; assay: Plasma lipids in dyslipidemic ApoE2/E2 mice after per os treatment; format: in vivo, mouse; details: 3 and 10 mpk per os, 14 days, vs control animals (FIG. 2-3)
Procedure: The dyslipidemic E2/E2 mouse's rates of total cholesterol, of triglycerides, and plasma free fatty acids are measured after 8 or 14 days of a per os treatment with the compounds according to the invention.
The hypolipidemic properties of the compounds according to the invention are evaluated in vivo by assaying plasma lipids and the analysis of the PPARs target genes expression in the liver after a treatment treating of the dyslipidemic E2/E2 mice with the compounds according to the invention.
The murine model used is the ApoE2/E2 mouse, a transgenic mouse having the human apolipoprotein E isoform E2 (Sullivan P M et al., 1998). In human, this apolipoprotein, a constituent of low and very low density lipoproteins (LDL-VLDL), is present in three isoforms E2, E3, and E4. The E2 form presents a mutation affecting the amino acid in position 158, which considerably weakens the affinity of this protein for LDL receptors. Accordingly, the VLDL clearance is nearly non-existent. An accumulation of low-density lipoproteins then occurs along with a mixed hyperlipidemia known as type III (elevated cholesterol and triglycerides).
The ApoE2/E2 transgenic mice were kept on a 12 hour/12 hour light/dark cycle at a constant temperature of 20±3° C. After a one week acclimatization period, the mice were weighed and divided into groups of 6 animals selected so as to render uniform the distribution of their body weights and plasma lipid rates, determined before the experiment. The tested compounds were suspended in carboxymethylcellulose (Sigma C4888) and administered by intra-gastric tube feeding once a day for 8 days (for compound 1) or 14 days (for compound 8) with the chosen doses. […] Taking of food and weight gain are recorded throughout the experiment. […]
Plasma lipid concentrations (total cholesterol and triglycerides) are measured by enzymatic doses (bioMérieux-Lyon-France) according to the provider's recommendations.
Plasma cholesterol and triglycerides rates are measured after 8 or 14 days of a per os treatment with the compounds according to the invention. […]

[2] = test system: db/db mice; assay: Plasma HDL-cholesterol, triglycerides and free fatty acids in db/db mice after per os treatment; format: in vivo, mouse; details: 50 mpk per os, 28 days
Procedure: The effect of the compounds according to the invention is evaluated in vivo on the db/db mice by measuring the levels of HDL-cholesterol, triglycerides, and plasma free fatty acids after 28 days of a per os treatment with the compounds according to the invention.
The hypolipidemic properties of the compounds according to the invention are evaluated in vivo by measuring the plasma levels of plasmatic lipids and by analyzing the genetic expression PPARs target genes, after treating the dyslipidemic db/db mice with the compounds according to the invention, administered by the oral route.
Female db/db mice were kept on a 12 hour/12 hour light/dark cycle at a constant temperature of 20±3° C. After a one week acclimatization period, the mice were weighed and divided into groups of 8 animals selected such as the distribution of body weight and of plasma lipid rate, determined before the experiment, was uniform. The tested compounds were suspended in carboxymethylcellulose (Sigma C4888) and administered to the animals by intra-gastric gavage, once a day for 28 days at the chosen doses. The animals had free access to food and water (standard diet). Taking of food and weight gain are recorded throughout the experiment. At the end of the experiment, after a 4 hour fast, the animals were anesthetized and a blood sample was taken on anticoagulant (EDTA). Then the mice were weighed and euthanized. The plasma was separated by centrifugation at 3000 rotations/minute for 20 minutes. The samples were kept at +4° C. The hepatic tissue and skeletal muscle samples were taken and frozen immediately in liquid nitrogen then conserved at −80° C. for later analysis.
Plasma triglycerides concentrations are measured by enzymatic assays (bioMérieux-Lyon-France) according to the provider's recommendations.
Low-density lipoproteins (VLDL and LDL) are precipitated by phosphotungstate. The precipitate is eliminated by centrifugation. HDL-cholesterol present in the supernatant is measured by enzymatic assay (bioMérieux-Lyon-France) in accordance with the provider's recommendations.

[3] = test system: MCP1 secretion by THP1 monocytes; assay: Secretion of MCP1 by THP1 monocytes stimulated with PMA (ELISA); format: cell-based, human; details: 1 μM, 24 hours, PMA 5 ng/ml, vs DMSO alone (FIG. 4-1)
Procedure: The anti-inflammatory effects of the compounds according to the invention were evaluated by measuring the secretion of MCP1 (Monocyte chemotactic protein-1) by THP1 monocytes treated for 24 hours with the compounds according to the invention and stimulated simultaneously with PMA (Phorbol 12-myristate 13-acetate, which promotes an inflammatory response in cells and their differentiation into macrophages).
The anti-inflammatory effects of the compound according to the invention were evaluated by measuring the secretion of MCP1 (Monocyte chemotactic protein-1) by THP1 monocytes treated for 24 hours with the compounds according to the invention and stimulated simultaneously with PMA (Phorbol 12-myristate 13-acetate, which promotes an inflammatory response in cells and their differentiation into macrophages). […]
The treatment medium is recovered and the MCP1 concentration is measured using the ELISA kit<<Human MCP-1 ELISA Set>>(BD OptEIA; 555179) in accordance with the manufacturer's recommendation.
MCP1 is laid on a plate and is recognized by a anti-MCP1 specific antibody. […] The coloration resulting from the enzymating activity is proportional to the quantity of fixed MCP1 and can be measured by a spectrophotometry method. A range is performed from a point representative of a known concentration and from which the MCP1 concentration of each sample is calculated. […]

SMILES: CCCOc1ccc(C(=O)CCc2cc(C)c(OC(C)(C)C(=O)O)c(C)c2)cc1 [Compound 8, 2-[2,6-dimethyl-4-[3-[4-(propyloxy)phenyl]-3-oxo-propyl]phenoxyl]-2-methylpropanoic acid]
- plasma total cholesterol rates [1]: very significantly decreased
- plasma HDL-cholesterol rates ([2]; vs control animals (FIG. 3-1)): significantly increased
- circulating triglycerides rates ([2]; vs control animals (FIG. 3-2)): very significantly decreased
- circulating free fatty acids rates ([2]; vs control animals (FIG. 3-3)): very significantly decreased
- MCP1 secreted by monocytes [3]: significant reduction

Reference: patent US8258182B2, “Substituted 1,3-diphenylpropane derivatives, preparations and uses thereof” (Genfit, priority 2006, dated 2012)
